We go through 43 molecules from US8802678B2, “Carbonylated (aza) cyclohexanes as dopamine D3 receptor ligands” (Bioprojet, priority 2006, dated 2014).

Structures are written as SMILES. Structures can show the parent of a compound that is named as a salt.

Molecule `O=C(N[C@H]1CC[C@H](CCN2CCN(c3cc(C(F)(F)F)ccc3F)CC2)CC1)C1=CCCC1` [Example 705] had a melting point of 199 °C.
For the molecule `Cc1ccc(N2CCN(CC[C@H]3CC[C@H](NC(=O)C4=CCCC4)CC3)CC2)cc1` [Example 475, Cyclopent-1-enecarboxylic acid {4-[2-(4-p-tolylpiperazin-1-yl)ethyl]cyclohexyl} amide], the melting point worked out at 227 °C.
To `COCC(=O)N[C@H]1CC[C@H](CCN2CCN(c3cccc(C(F)(F)F)c3)CC2)CC1` [Example 41, 2-Methoxy-N-(4-{2-[4-(3-trifluoromethylphenyl)piperazin-1-yl]ethyl}cyclohexyl)acetamide] belongs 123 °C; to `CC(=O)CN1CCC(CCN2CCC(c3cccc4c3CCC4)CC2)CC1.Cl.Cl`, 339 °C; to `O=C(N[C@H]1CC[C@H](CCN2CCN(c3ccc(F)cc3F)CC2)CC1)C1CC=CC1` [Example 494, Cyclopent-3-enecarboxylic acid (4-{2-[4-(2,4-difluorophenyl)-piperazin-1-yl]ethyl}cyclohexyl) amide], 199 °C.
`O=C(C[C@H]1CC[C@H](CCN2CCN(c3ccccc3F)CC2)CC1)NCC(F)(F)F` [Example 304, 2-(4-{2-[4-(2-Fluorophenyl)piperazin-1-yl]ethyl}cyclohexyl)-N-(2,2,2-trifluoroethyl)acetamide] registered a melting point of 158 to 159 °C.
Under `CC(C)(C)c1nc(N2CCN(CC[C@H]3CC[C@H](NC(=O)CCC#N)CC3)CC2)cc(C(F)(F)F)n1` [Example 244] stands 151 °C; under `Cc1cccc(C)c1N1CCN(CC[C@H]2CC[C@H](NC(=O)CC#N)CC2)CC1` [Example 267, 2-Cyano-N-(4-{2-[4-(2,6-dimethylphenyl)piperazin-1-yl]ethyl}cyclohexyl)acetamide], 143 °C; under `O=C(N[C@H]1CC[C@H](CCN2CCN(c3ccc(F)cc3F)CC2)CC1)C1=CCCCO1` [Example 565, 5,6-Dihydro-4H-pyran-2-carboxylic acid (4-{2-[4-(2,4-difluorophenyl)piperazin-1-yl]ethyl}cyclohexyl) amide], 160 °C.
`CC(=O)CN1CCC(CCN2CCN(c3cc(F)cc(C(F)(F)F)c3)CC2)CC1.Cl.Cl` showed a melting point of 295 °C.
Turning to `N#CCCCC(=O)N[C@H]1CC[C@H](CCN2CCN(c3ccc(F)c(C(F)(F)F)c3)CC2)CC1` [Example 430, 4-Cyano-N-(4-{2-[4-(4-fluoro-3-trifluoromethylphenyl)piperazin-1-yl]ethyl}cyclohexyl)butanamide], the melting point worked out at 149 °C.
In turn, `CC(=O)CN1CCC(CCN2CCN(c3ccc4c(c3)CCC4)CC2)CC1.Cl.Cl` had a melting point of 291 °C.
Take `CCC(=O)c1cccc(N2CCN(CCC3CCN(CC(C)=O)CC3)CC2)c1` [Example 604, 1-[3-(4-{2-[1-(2-Oxopropyl)piperidin-4-yl]ethyl}piperazin-1-yl)phenyl]propan-1-one]: the melting point worked out at 68 °C.
`NC(=O)CCC(=O)N[C@H]1CC[C@H](CCN2CCN(c3cccc(F)c3)CC2)CC1` [Example 397, N-(4-{2-[4-(3-Fluorophenyl)-piperazin-1-yl]ethyl}cyclohexyl)-succinamide] displayed a melting point of 255 °C.
With `Cc1cccc(N2CCN(CC[C@H]3CC[C@H](NC(=O)CC#N)CC3)CC2)c1` [Example 166, 2-Cyano-N-{4-[2-(4-m-tolylpiperazin-1-yl)ethyl]cyclohexyl}acetamide], the melting point is 175 °C.
Under `CC(=O)CN1CCC(CCN2CCN(c3cccc4ncccc34)CC2)CC1.Cl.Cl` stands 295 °C; under `CC(=O)CN1CCC(CCN2CCN(c3ccc(C)c(C#N)c3)CC2)CC1` [Example 464, 2-Methyl-5-(4-{2-[1-(2-oxopropyl)piperidin-4-yl]ethyl}piperazin-1-yl)benzonitrile], 107 °C; under `CCOc1cccc(N2CCN(CC[C@H]3CC[C@H](NC(=O)CCCC#N)CC3)CC2)c1` [Example 535, 4-Cyano-N-(4-{2-[4-(3-ethoxyphenyl)piperazin-1-yl]ethyl}cyclohexyl)butanamide], 121 °C.
`CC(=O)CCC(=O)N[C@H]1CC[C@H](CCN2CCN(c3cccc(C(F)(F)F)c3)CC2)CC1` [Example 191, 4-Oxo-pentanoic acid (4-{2-[4-(3-trifluoromethylphenyl)piperazin-1-yl]ethyl}cyclohexyl)amide] registered a melting point of 159 °C.
To `Cc1cc(Cl)cc(N2CCN(CC[C@H]3CC[C@H](NC(=O)CC#N)CC3)CC2)c1` [Example 437, N-(4-{2-[4-(3-Chloro-5-methylphenyl)piperazin-1-yl]ethyl}cyclohexyl)-2-cyanoacetamide] belongs 185 °C; to `CSc1ccccc1N1CCN(CCC2CCN(CC(C)=O)CC2)CC1.Cl.Cl`, 280 °C; to `CC(=O)CN1CCC(CCN2CCN(c3cccc(Cl)c3Cl)CC2)CC1` (as salt: hydrochloride) [Example 737, 1-(4-{2-[4-(2,3-Dichlorophenyl)piperazin-1-yl]ethyl}piperidin-1-yl)propan-2-one, dihydrochloride], 281 °C.
Under `N#CCCCC(=O)N[C@H]1CC[C@H](CCN2CCN(c3cccc(C(F)(F)F)c3F)CC2)CC1` [Example 172, 4-Cyano-N-(4-{2-[4-(2-fluoro-3-trifluoromethylphenyl)piperazin-1-yl]ethyl}cyclohexyl)butanamide] stands 158 to 162 °C; under `N#CCC(=O)N[C@H]1CC[C@H](CCN2CC=C(c3cc(F)cc(C(F)(F)F)c3)CC2)CC1`, 163 °C; under `O=C(N[C@H]1CC[C@H](CCN2CCN(c3cc(Cl)ccc3F)CC2)CC1)C1=CCCC1` [Example 525, Cyclopent-1-enecarboxylic acid (4-{2-[4-(5-chloro-2-fluorophenyl)piperazin-1-yl]ethyl}cyclohexyl) amide], 198 °C.
`N#CCC(=O)CN1CCC(CCN2CCN(c3cccc(C(F)(F)F)c3)CC2)CC1` (as salt: hydrochloride) returned a melting point of 160 °C.
To `CCN(CC)CCC(=O)N[C@H]1CC[C@H](CCN2CCN(c3cccc(F)c3)CC2)CC1` [Example 411, 3-Diethylamino-N-(4-{2-[4-(3-fluorophenyl)piperazin-1-yl]ethyl}cyclohexyl)propanamide] belongs 118 °C.
The molecule `CCc1cccc(N2CCN(CC[C@H]3CC[C@H](NC(=O)CC#N)CC3)CC2)c1` [Example 149, 2-Cyano-N-(4-{2-[4-(3-ethylphenyl)piperazin-1-yl]ethyl}cyclohexyl)acetamide] showed a melting point of 142 °C.
Under `Cc1ccccc1C1=CCN(CC[C@H]2CC[C@H](NC(=O)CCCC#N)CC2)CC1` stands 140 °C; under `COCCCC(=O)N[C@H]1CC[C@H](CCN2CCN(c3ccc(Cl)c(Cl)c3F)CC2)CC1` [Example 684, N-(4-{2-[4-(3,4-Dichloro-2-fluoro-phenyl)piperazin-1-yl]ethyl}cyclohexyl)-4-methoxybutanamide], 210 °C.
To `CC(=O)c1cccc(N2CCN(CC[C@H]3CC[C@H](NC(=O)CCCC#N)CC3)CC2)c1` [Example 375] belongs 181 °C; to `CC(=O)NCC(=O)N[C@H]1CC[C@H](CCN2CCN(c3cccc(C(F)(F)F)c3)CC2)CC1` [Example 105, 2-Acetylamino-N-(4-{2-[4-(3-trifluoromethylphenyl)piperazin-1-yl]ethyl}cyclohexyl)acetamide], 187 °C; to `CC(=O)CN1CCC(CCN2CCN(c3ccc4c(c3)CCCCC4)CC2)CC1` [Example 642, 1-(4-{2-[4-(6,7,8,9-Tetrahydro-5H-benzocyclohepten-2-yl)piperazin-1-yl]ethyl}piperidin-1-yl)propan-2-one], 98 °C.
To `N#CCC(=O)N[C@H]1CC[C@H](CCN2CCN(c3cccc(C#N)c3)CC2)CC1` [Example 90, 2-Cyano-N-(4-{2-[4-(3-cyanophenyl)piperazin-1-yl]ethyl}cyclohexyl)acetamide trans/cis 75/25] belongs 188 °C; to `N#CCCC(=O)N[C@H]1CC[C@H](CCN2CCN(c3cccc(C#N)c3)CC2)CC1` [Example 644, 3-Cyano-N-(4-{2-[4-(3-cyanophenyl)piperazin-1-yl]ethyl}cyclohexyl)propanamide], 160 °C; to `N#CCC(=O)N[C@H]1CC[C@@H](CCN2CCN(c3cc(C(F)(F)F)ccc3F)CC2)CC1` [Example 586, 2-Cyano-N-(4-{2-[4-(2-fluoro-5-trifluoromethylphenyl)piperazin-1-yl]ethyl}cyclohexyl)acetamide], 152 °C.
As for `CCOC(=O)CN1CCC(CCN2CCN(c3cccc(C(F)(F)F)c3)CC2)CC1.Cl.Cl`, the melting point was determined as 240 °C.
Under `Cc1ccc(F)cc1N1CCN(CC[C@H]2CC[C@H](NC(=O)CC#N)CC2)CC1` [Example 196, 2-Cyano-N-(4-{2-[4-(5-fluoro-2-methylphenyl)piperazin-1-yl]ethyl}cyclohexyl)acetamide] stands 159 °C.
Under `N#Cc1cccc(N2CCN(CC[C@H]3CC[C@H](NC(=O)C4=CCCC4)CC3)CC2)c1` [Example 512, Cyclopent-1-enecarboxylic acid (4-{2-[4-(3-cyanophenyl)-piperazin-1-yl]ethyl}cyclohexyl) amide] stands 191 °C.
Consider `N#CCC(=O)N[C@H]1CC[C@H](CCN2CCN(c3cc(F)c(F)c(F)c3F)CC2)CC1` [Example 708, 2-Cyano-N-(4-{2-[4-(2,3,4,5-tetrafluorophenyl)piperazin-1-yl]ethyl}cyclohexyl)acetamide], for which the melting point came to 214 °C.
For the molecule `CC(=O)CCCN1CCC(CCN2CCN(c3cccc(C(F)(F)F)c3)CC2)CC1.Cl.Cl`, the melting point came to 315 °C.
In turn, `N#CCC(=O)N[C@H]1CC[C@H](CCN2CCN(c3ccc4c(c3)CCC4)CC2)CC1` [Example 212, 2-Cyano-N-{4-[2-(4-indan-5-ylpiperazin-1-yl)ethyl]cyclohexyl}acetamide] registered a melting point of 210 °C.
Molecule `CS(=O)(=O)CC(=O)N[C@H]1CC[C@H](CCN2CCN(c3ccc(Cl)cc3)CC2)CC1` [Example 427, N-(4-{2-[4-(4-Chlorophenyl)-piperazin-1-yl]ethyl}cyclohexyl)-2-methanesulfonylacetamide] displayed a melting point of 214 °C.

As a reminder, the melting point is the temperature, or range, at which the solid turns liquid.
